Assay results taken from patent US8026359B2, “Fungicidal heterocyclic amines” (E.I. du Pont de Nemours and Company, priority 2007, dated 2011).

What was measured:
Assay type in all cases: in vivo
[1] = test system: Colletotrichum orbiculare; experiment: Test I: cucumber Colletotrichum anthracnose, preventive spray on cucumber seedlings; conditions: 100 = 100% disease control, 0 = no control relative to controls; for pest or weed control at 200 ppm: Colletotrichum orbiculare, 144 h, read-out: Test I disease control rating; for Test I disease control rating: 200 ppm
Method in brief: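 Compound was dissolved in acetone (3% of final volume), then suspended in 50/50 acetone/water with 250 ppm Trem 014 surfactant. Cucumber seedlings were sprayed to run-off as a preventive treatment at 200 ppm (equivalent to 500 g/ha) or 40 ppm.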

[2] = test system: Erysiphe graminis f. sp. tritici; experiment: Test A: wheat powdery mildew, preventive spray on wheat seedlings; conditions: 200 ppm, 100 = 100% disease control, 0 = no control relative to controls; for pest or weed control at 200 ppm: Blumeria graminis, 192 h, read-out: Test A disease control rating
Method in brief: (§1)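 Two spray concentrations are used, 40 ppm and 200 ppm, the latter matching a rate of 500 g/ha, applied until run-off. The carrier is half acetone, half purified water with 250 ppm surfactant, and acetone for initial dissolution makes up 3% of the volume.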

[3] = test system: Botrytis cinerea; experiment: Test F: tomato Botrytis, preventive spray on tomato seedlings; conditions: 200 ppm, 100 = 100% disease control, 0 = no control relative to controls; for pest or weed control at 200 ppm: Botrytis cinerea, 120 h, read-out: Test F disease control rating
Method in brief: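 Compounds dissolved in acetone (3% of final volume), suspended in 50/50 acetone/water with 250 ppm Trem® 014. Sprayed preventively to run-off on tomato seedlings at 200 ppm (500 g/ha) or 40 ppm.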

[4] = test system: Fusarium graminearum; experiment: whole plant or invertebrate; conditions: for pest or weed control at 200 ppm: Fusarium graminearum, in Triticum aestivum, 192 h, read-out: Test E disease control rating; for Test E disease control rating: 200 ppm, 100 = 100% disease control, 0 = no control relative to controls
[5] = test system: Plasmopara viticola; experiment: Test R: grape downy mildew, preventive spray on grape seedlings; conditions: 100 ppm (100 g/ha, 1000 L/ha), inoculated the following day, 100 = 100% disease control, 0 = no control relative to controls
Text: (§2) General protocol for preparing test suspensions for Tests A-R: The test compounds were first dissolved in acetone in an amount equal to 3% of the final volume and then suspended at the desired concentration (in ppm) in acetone and purified water (50/50 mix) containing 250 ppm of the surfactant Trem® 014 (polyhydric alcohol esters). The resulting test suspensions were then used in tests A-R. In Tests A-M, compounds were sprayed as a 200 ppm test suspension (equivalent to a rate of 500 g/ha) or as a 40 ppm test suspension to the point of runoff on the test plants. In Tests N-R, compounds were sprayed as a 100 g/ha test suspension (equivalent to a rate of 100 ppm) on the test plants at an application volume of 1000 L/ha. The test suspension was sprayed on grape seedlings. The following day the seedlings were inoculated with a spore suspension of Plasmopara viticola (the causal agent of grape downy mildew) and incubated in a saturated atmosphere at 20° C. for 24 h, then moved to a growth chamber at 20° C. for 7 days, after which time the test units were placed back into a saturated atmosphere at 20° C. for 24 h. Upon removal, disease ratings were made.

[6] = test system: Puccinia recondita f. sp. tritici; experiment: Test B: wheat leaf rust, preventive spray on wheat seedlings; conditions: 200 ppm, 100 = 100% disease control, 0 = no control relative to controls; for pest or weed control at 200 ppm: Puccinia recondita, 192 h, read-out: Test B disease control rating
Method in brief: as §1

[7] = test system: Venturia inaequalis; experiment: Test O: apple scab, preventive spray on apple seedlings; conditions: 100 ppm (100 g/ha, 1000 L/ha), inoculated the following day, 100 = 100% disease control, 0 = no control relative to controls
Text: as §2, with “apple” for “grape”, “seedlings.” for “seedlings. The following day the seedlings were inoculated with a spore suspension of Plasmopara viticola (the causal agent of grape downy mildew) and incubated in a saturated atmosphere at 20° C. for 24 h, then moved to a growth chamber at 20° C. for 7 days, after which time the test units were placed back into a saturated atmosphere at 20° C. for 24 h. Upon removal, disease ratings were made.”

[8] = test system: Septoria nodorum; experiment: Test C: wheat glume blotch, preventive spray on wheat seedlings; conditions: 200 ppm, 100 = 100% disease control, 0 = no control relative to controls; for pest or weed control at 200 ppm: Parastagonospora nodorum, 216 h, read-out: Test C disease control rating
Method in brief: as §1

[9] = test system: Septoria tritici; experiment: Test D: wheat leaf blotch, preventive spray on wheat seedlings; conditions: 200 ppm, 100 = 100% disease control, 0 = no control relative to controls; for pest or weed control at 200 ppm: Zymoseptoria tritici, 504 h, read-out: Test D disease control rating
Method in brief: as §1

[10] = test system: Uncinula necator; experiment: Test N: grape powdery mildew, preventive spray on grape seedlings; conditions: 100 ppm (100 g/ha, 1000 L/ha), inoculated the following day, 100 = 100% disease control, 0 = no control relative to controls
Text: as §2, with “seedlings.” for “seedlings. The following day the seedlings were inoculated with a spore suspension of Plasmopara viticola (the causal agent of grape downy mildew) and incubated in a saturated atmosphere at 20° C. for 24 h, then moved to a growth chamber at 20° C. for 7 days, after which time the test units were placed back into a saturated atmosphere at 20° C. for 24 h. Upon removal, disease ratings were made.”

[11] = test system: Plasmopara viticola; experiment: Test L: grape downy mildew, spray after inoculation of grape seedlings; conditions: 200 ppm; 100 = 100% disease control, 0 = no control relative to controls
Text: as §2, with “Grape” for “The test suspension was sprayed on grape seedlings. The following day the”, “h. After a short drying period, the test suspension was sprayed to the point of run-off on the grape seedlings and” for “h,”, “6” for “7”

[12] = test system: Pythium aphanidermatum; experiment: Test M: bluegrass pythium blight, preventive spray on bluegrass seedlings; conditions: 200 ppm; 100 = 100% disease control, 0 = no control relative to controls
Text: (§3) General protocol for preparing test suspensions for Tests A-R: The test compounds were first dissolved in acetone in an amount equal to 3% of the final volume and then suspended at the desired concentration (in ppm) in acetone and purified water (50/50 mix) containing 250 ppm of the surfactant Trem® 014 (polyhydric alcohol esters). The resulting test suspensions were then used in tests A-R. In Tests A-M, compounds were sprayed as a 200 ppm test suspension (equivalent to a rate of 500 g/ha) or as a 40 ppm test suspension to the point of runoff on the test plants. In Tests N-R, compounds were sprayed as a 100 g/ha test suspension (equivalent to a rate of 100 ppm) on the test plants at an application volume of 1000 L/ha. The test suspension was sprayed to the point of run-off on bluegrass seedlings.

[13] = test system: Rhizoctonia oryzae; experiment: Test J: turf brown patch, preventive spray on creeping bent grass seedlings; conditions: 200 ppm; 100 = 100% disease control, 0 = no control relative to controls
Text: as §3, with “creeping bent grass” for “bluegrass”

[14] = test system: Phytophthora infestans; conditions: 200 ppm; 100 = 100% disease control, 0 = no control relative to controls

SMILES	pest or weed control at 200 ppm [1] [%]	pest or weed control at 200 ppm [2] [%]	pest or weed control at 200 ppm [3] [%]	pest or weed control at 200 ppm [4] [%]	Test R disease control rating [5] [%]	pest or weed control at 200 ppm [6] [%]	Test O disease control rating [7] [%]	pest or weed control at 200 ppm [8] [%]	pest or weed control at 200 ppm [9] [%]	Test N disease control rating [10] [%]	Test I disease control rating [1] [%]	Test F disease control rating [3] [%]	Test E disease control rating [4] [%]	Test B disease control rating [6] [%]	Test C disease control rating [8] [%]	Test D disease control rating [9] [%]	Test A disease control rating [2] [%]	further results
COCC(C)Nc1nccc(-c2ncnc(Nc3cccc(Cl)c3)n2)n1 (centres unmarked) [Compound 1, N-(3-chlorophenyl)-4-[2-[(2-methoxy-1-methylethyl)amino]-4-pyrimidinyl]-1,3,5-triazine-2-amine]	99	76	98	98	26	96	78	100	0	90	–	–	–	–	–	–	–	–
COC[C@H](C)Nc1nccc(-c2ncnc(Nc3cccc([N+](=O)[O-])c3)n2)n1 [Compound 21]	–	–	–	–	79	–	99	–	–	57	96	72	87	99	97	13	–	–
Fc1cccc(Nc2cc(-c3ccnc(NC4CCOCC4)n3)ccn2)c1 [Compound 67, 4-[2-[(3-fluorophenyl)amino]-4-pyridinyl]-N-(tetrahydro-2H-pyran-4-yl)-2-pyrimidinamine]	79	17	95	0	94	97	73	99	52	55	–	–	–	–	–	–	–	–
Clc1cccc(Cl)c1Nc1cc(-c2ccnc(NC3CCOCC3)n2)ccn1 [Compound 81]	–	–	–	–	97	–	69	–	–	97	91	99	97	100	99	92	95	–
Cc1cc(C)c(Nc2cc(-c3ccnc(NC4CCOCC4)n3)ccn2)c(Cl)c1 [Compound 90]	–	–	–	–	98	–	–	–	–	98	93	99	100	99	100	47	98	–
Clc1cc(Cl)c(Nc2cc(-c3ccnc(NC4CCOCC4)n3)ccn2)c(Cl)c1 [Compound 99]	–	–	–	–	99	–	83	–	–	30	0	0	92	95	100	30	0	–
COCC(C)Nc1cc(-c2ccnc(Nc3cccc(F)c3)n2)ncn1 (centres unmarked) [Compound 106, N^2-(3-fluorophenyl)-N^6′-(2-methoxy-1-methylethyl) [4,4′-bipyrimidine]-2,6′-diamine]	37	24	85	32	–	94	–	99	17	–	–	–	–	–	–	–	–	Test L disease control rating [11]: 0%; Test M disease control rating [12]: 0%; Test J disease control rating [13]: 0%; Test K disease control rating [14]: 0%
COCC(C)Nc1cc(-c2ccnc(Nc3cccc([N+](=O)[O-])c3)n2)ncn1 (centres unmarked) [Compound 107, N^6′-(2-methoxy-1-methylethyl)-N^2-(3-nitrophenyl) [4,4′-bipyrimidine]-2,6′-diamine]	72	0	28	89	–	94	–	100	8	–	–	–	–	–	–	–	–	Test L disease control rating [11]: 0%; Test M disease control rating [12]: 0%; Test J disease control rating [13]: 0%; Test K disease control rating [14]: 0%
